From patent US20050222135A1, “Active substance combination” (priority 2004, published 2005) come the findings set out here.

This data set relates to male Swiss albino mice. The settings on record: 30 minute period after 2 mg/kg naloxone i.v.; Morphine 5 mg/kg/day s.c. over 4 days, Cizolirtine (as citrate) 40 mg/kg/day i.p. The method, then: Pharmacodyn. 1971, 190, pages 213-218 in male Swiss albino mice (weight 20-25 g, Harlan Iberica, S. Feliu de Codinas, Barcelona, Spain).
Withdrawal symptoms are then induced by the intravenous administration of a suitable opioid antagonist in a dose known to those skilled in the art, for example, 2 mg/kg naloxone in case of morphine, 30 minutes after the administration of the final dose of the opioid is completed.
After the administration of 2 mg/kg naloxone 30 minutes after the administration of the final dose of the active substance combination has been completed, the mice are closely watched for withdrawal symptoms, namely jumps and shakes (of the wet dog shake type), which are then counted and registered.

On to `CN1CC[C@]23c4c5ccc(O)c4O[C@H]2[C@@H](O)C=C[C@H]3[C@H]1C5` [Morphine], for which the Number of jumps is given as 6.6.
